# Data reported in paper PMC11420776 (RSC Advances, 2024).
# Assays:
# TK-10 (renal cancer) = assay: NCI 60-cell one-dose antiproliferative screen; format: cell-based, human; settings: one dose 10 μM
# CAKI-1 (renal cancer) = assay: NCI 60-cell one-dose antiproliferative screen; format: cell-based, human; settings: one dose 10 μM
# HCC-2998 (colon cancer) = assay: NCI 60-cell one-dose antiproliferative screen; format: cell-based, human; settings: one dose 10 μM
# [1] = test system: NCI-H322M (NSC lung cancer); assay: NCI 60-cell one-dose antiproliferative screen; format: cell-based, human; settings: one dose 10 μM
# [2] = test system: NCI-H23 (NSC lung cancer); assay: NCI 60-cell one-dose antiproliferative screen; format: cell-based, human; settings: one dose 10 μM
# [3] = test system: NCI-H460 (NSC lung cancer); assay: NCI 60-cell one-dose antiproliferative screen; format: cell-based, human; settings: one dose 10 μM
# HOP-92 (NSC lung cancer) = assay: NCI 60-cell one-dose antiproliferative screen; format: cell-based, human; settings: one dose 10 μM
# RPMI-8226 (leukemia) = assay: NCI 60-cell one-dose antiproliferative screen; format: cell-based, human; settings: one dose 10 μM
# UACC-62 (melanoma) = assay: NCI 60-cell one-dose antiproliferative screen; format: cell-based, human; settings: one dose 10 μM
# SK-MEL-2 (melanoma) = assay: NCI 60-cell one-dose antiproliferative screen; format: cell-based, human; settings: one dose 10 μM
# [4] = test system: NCI/ADR-RES (ovarian cancer); assay: NCI 60-cell one-dose antiproliferative screen; format: cell-based, human; settings: one dose 10 μM
# [5] = test system: A549/ATCC (NSC lung cancer); assay: NCI 60-cell one-dose antiproliferative screen; format: cell-based, human; settings: one dose 10 μM
# OVCAR-3 (ovarian cancer) = assay: NCI 60-cell one-dose antiproliferative screen; format: cell-based, human; settings: one dose 10 μM
# ACHN (renal cancer) = assay: NCI 60-cell one-dose antiproliferative screen; format: cell-based, human; settings: one dose 10 μM
# MDA-MB-435 (melanoma) = assay: NCI 60-cell one-dose antiproliferative screen; format: cell-based, human; settings: one dose 10 μM
# SF-539 (CNS cancer) = assay: NCI 60-cell one-dose antiproliferative screen; format: cell-based, human; settings: one dose 10 μM
# 786-0 (renal cancer) = assay: NCI 60-cell one-dose antiproliferative screen; format: cell-based, human; settings: one dose 10 μM
# HCT-116 (colon cancer) = assay: NCI 60-cell one-dose antiproliferative screen; format: cell-based, human; settings: one dose 10 μM
# MALME-3M (melanoma) = assay: NCI 60-cell one-dose antiproliferative screen; format: cell-based, human; settings: one dose 10 μM
# T-47D (breast cancer) = assay: NCI 60-cell one-dose antiproliferative screen; format: cell-based, human; settings: one dose 10 μM
# SF-268 (CNS cancer) = assay: NCI 60-cell one-dose antiproliferative screen; format: cell-based, human; settings: one dose 10 μM
# HT29 (colon cancer) = assay: NCI 60-cell one-dose antiproliferative screen; format: cell-based, human; settings: one dose 10 μM
# EKVX (NSC lung cancer) = assay: NCI 60-cell one-dose antiproliferative screen; format: cell-based, human; settings: one dose 10 μM
# [6] = test system: 60 human tumor cell lines; assay: NCI 60-cell one-dose antiproliferative screen, whole panel; format: cell-based
# SN12C (renal cancer) = assay: NCI 60-cell one-dose antiproliferative screen; format: cell-based, human; settings: one dose 10 μM
# [7] = test system: NCI-H522 (NSC lung cancer); assay: NCI 60-cell one-dose antiproliferative screen; format: cell-based, human; settings: one dose 10 μM
# SNB-19 (CNS cancer) = assay: NCI 60-cell one-dose antiproliferative screen; format: cell-based, human; settings: one dose 10 μM
# SNB-75 (CNS cancer) = assay: NCI 60-cell one-dose antiproliferative screen; format: cell-based, human; settings: one dose 10 μM
# [8] = test system: MDA-MB-231/ATCC (breast cancer); assay: NCI 60-cell one-dose antiproliferative screen; format: cell-based, human; settings: one dose 10 μM
# [9] = test system: MDA-MB-468 (breast cancer); assay: NCI 60-cell one-dose antiproliferative screen; format: cell-based, human; settings: one dose 10 μM
# KM12 (colon cancer) = assay: NCI 60-cell one-dose antiproliferative screen; format: cell-based, human; settings: one dose 10 μM
# CCRF-CEM (leukemia) = assay: NCI 60-cell one-dose antiproliferative screen; format: cell-based, human; settings: one dose 10 μM
# U251 (CNS cancer) = assay: NCI 60-cell one-dose antiproliferative screen; format: cell-based, human; settings: one dose 10 μM
# DU-145 (prostate cancer) = assay: NCI 60-cell one-dose antiproliferative screen; format: cell-based, human; settings: one dose 10 μM
# OVCAR-4 (ovarian cancer) = assay: NCI 60-cell one-dose antiproliferative screen; format: cell-based, human; settings: one dose 10 μM
# SK-OV-3 (ovarian cancer) = assay: NCI 60-cell one-dose antiproliferative screen; format: cell-based, human; settings: one dose 10 μM
# HCT-15 (colon cancer) = assay: NCI 60-cell one-dose antiproliferative screen; format: cell-based, human; settings: one dose 10 μM
# RXF 393 (renal cancer) = assay: NCI 60-cell one-dose antiproliferative screen; format: cell-based, human; settings: one dose 10 μM
# A498 (renal cancer) = assay: NCI 60-cell one-dose antiproliferative screen; format: cell-based, human; settings: one dose 10 μM
# COLO-205 (colon cancer) = assay: NCI 60-cell one-dose antiproliferative screen; format: cell-based, human; settings: one dose 10 μM
# [10] = test system: NCI-H226 (NSC lung cancer); assay: NCI 60-cell one-dose antiproliferative screen; format: cell-based, human; settings: one dose 10 μM
# IGROV1 (ovarian cancer) = assay: NCI 60-cell one-dose antiproliferative screen; format: cell-based, human; settings: one dose 10 μM
# UACC-257 (melanoma) = assay: NCI 60-cell one-dose antiproliferative screen; format: cell-based, human; settings: one dose 10 μM
# UO-31 (renal cancer) = assay: NCI 60-cell one-dose antiproliferative screen; format: cell-based, human; settings: one dose 10 μM
# SK-MEL-28 (melanoma) = assay: NCI 60-cell one-dose antiproliferative screen; format: cell-based, human; settings: one dose 10 μM
# MCF7 (breast cancer) = assay: NCI 60-cell one-dose antiproliferative screen; format: cell-based, human; settings: one dose 10 μM
# HS 578T (breast cancer) = assay: NCI 60-cell one-dose antiproliferative screen; format: cell-based, human; settings: one dose 10 μM
# SW-620 (colon cancer) = assay: NCI 60-cell one-dose antiproliferative screen; format: cell-based, human; settings: one dose 10 μM
# OVCAR-8 (ovarian cancer) = assay: NCI 60-cell one-dose antiproliferative screen; format: cell-based, human; settings: one dose 10 μM
# OVCAR-5 (ovarian cancer) = assay: NCI 60-cell one-dose antiproliferative screen; format: cell-based, human; settings: one dose 10 μM
# SF-295 (CNS cancer) = assay: NCI 60-cell one-dose antiproliferative screen; format: cell-based, human; settings: one dose 10 μM
# M14 (melanoma) = assay: NCI 60-cell one-dose antiproliferative screen; format: cell-based, human; settings: one dose 10 μM
# HOP-62 (NSC lung cancer) = assay: NCI 60-cell one-dose antiproliferative screen; format: cell-based, human; settings: one dose 10 μM
# LOX IMIV (melanoma) = assay: NCI 60-cell one-dose antiproliferative screen; format: cell-based, human; settings: one dose 10 μM
# PC-3 (prostate cancer) = assay: NCI 60-cell one-dose antiproliferative screen; format: cell-based, human; settings: one dose 10 μM
smiles,measurement,setting,value
"Cc1cc(C)n(-c2ccc3nnc(-c4ccccc4)n3n2)n1 [Compound 5, 6-(3,5-dimethyl-1H-pyrazol-1-yl)-3-phenyl-[1,2,4]triazolo[4,3-b]pyridazine]",GI%,TK-10 (renal cancer),— (— GI% is below 15%)
same,GI%,CAKI-1 (renal cancer),25.28%
same,GI%,HCC-2998 (colon cancer),— (— GI% is below 15%)
same,GI%,[1],— (— GI% is below 15%)
same,GI%,[2],— (— GI% is below 15%)
same,GI%,[3],— (— GI% is below 15%)
same,GI%,HOP-92 (NSC lung cancer),— (— GI% is below 15%)
same,GI%,RPMI-8226 (leukemia),— (— GI% is below 15%)
same,GI%,UACC-62 (melanoma),— (— GI% is below 15%)
same,GI%,SK-MEL-2 (melanoma),— (— GI% is below 15%)
same,GI%,[4],23.93%
same,GI%,[5],— (— GI% is below 15%)
same,GI%,OVCAR-3 (ovarian cancer),— (— GI% is below 15%)
same,GI%,ACHN (renal cancer),— (— GI% is below 15%)
same,GI%,MDA-MB-435 (melanoma),— (— GI% is below 15%)
same,GI%,SF-539 (CNS cancer),— (— GI% is below 15%)
same,GI%,786-0 (renal cancer),— (— GI% is below 15%)
same,GI%,HCT-116 (colon cancer),— (— GI% is below 15%)
same,GI%,MALME-3M (melanoma),— (— GI% is below 15%)
same,GI%,T-47D (breast cancer),— (— GI% is below 15%)
same,GI%,SF-268 (CNS cancer),— (— GI% is below 15%)
same,GI%,HT29 (colon cancer),— (— GI% is below 15%)
same,GI%,EKVX (NSC lung cancer),— (— GI% is below 15%)
same,inhibition at 10 µM,"[6]; Homo sapiens, 60 cell, read-out: Mean inhibition (mean GI%)",< 0%
same,cytotoxic activity in words,"[6]; NCI-60 panel, one dose 10 μM",demolished cytotoxicity
same,GI%,SN12C (renal cancer),— (— GI% is below 15%)
same,GI%,[7],25.34%
same,GI%,SNB-19 (CNS cancer),— (— GI% is below 15%)
same,GI%,SNB-75 (CNS cancer),— (— GI% is below 15%)
same,GI%,[8],— (— GI% is below 15%)
same,GI%,[9],— (— GI% is below 15%)
same,GI%,KM12 (colon cancer),— (— GI% is below 15%)
same,GI%,CCRF-CEM (leukemia),— (— GI% is below 15%)
same,GI%,U251 (CNS cancer),— (— GI% is below 15%)
same,GI%,DU-145 (prostate cancer),— (— GI% is below 15%)
same,GI%,OVCAR-4 (ovarian cancer),— (— GI% is below 15%)
same,GI%,SK-OV-3 (ovarian cancer),— (— GI% is below 15%)
same,GI%,HCT-15 (colon cancer),— (— GI% is below 15%)
same,GI%,RXF 393 (renal cancer),— (— GI% is below 15%)
same,GI%,A498 (renal cancer),— (— GI% is below 15%)
same,GI%,COLO-205 (colon cancer),— (— GI% is below 15%)
same,GI%,[10],— (— GI% is below 15%)
same,GI%,IGROV1 (ovarian cancer),— (— GI% is below 15%)
same,GI%,UACC-257 (melanoma),— (— GI% is below 15%)
same,GI%,UO-31 (renal cancer),>100%
same,GI%,SK-MEL-28 (melanoma),— (— GI% is below 15%)
same,GI%,MCF7 (breast cancer),— (— GI% is below 15%)
same,GI%,HS 578T (breast cancer),— (— GI% is below 15%)
same,GI%,SW-620 (colon cancer),— (— GI% is below 15%)
same,GI%,OVCAR-8 (ovarian cancer),— (— GI% is below 15%)
same,GI%,OVCAR-5 (ovarian cancer),— (— GI% is below 15%)
same,GI%,SF-295 (CNS cancer),— (— GI% is below 15%)
same,GI%,M14 (melanoma),— (— GI% is below 15%)
same,GI%,HOP-62 (NSC lung cancer),— (— GI% is below 15%)
same,GI%,LOX IMIV (melanoma),22.70%
same,GI%,PC-3 (prostate cancer),— (— GI% is below 15%)
